In the NIST ThermoML archive (doi:10.1016/j.tca.2012.07.004):

Experiment: xn = mol fraction of the nth substance listed
Conditions: 101 kPa, Liquid; for mass density: Vibrating tube method; for viscosity: Vibrating wire viscometry; for speed of sound: ultrasonic interferometer

C[NH+](C)C.O=S(=O)([O-])O [trimethylammonium hydrogen sulfate] + CN1CCCC1=O
Conditions | mass density [kg/m3] | speed of sound [m/s] | viscosity [mPa·s]
298.15 K, x1 = 0.0183 | 1041.67 | 1572 | 2.72
298.15 K, x1 = 0.0369 | 1053.11 | 1573 | 3.99
298.15 K, x1 = 0.0964 | 1086.47 | 1576 | 6.59
298.15 K, x1 = 0.138 | 1103.99 | 1578 | 8.37
298.15 K, x1 = 0.2014 | 1128.96 | 1580 | 10.5
298.15 K, x1 = 0.3115 | 1160.07 | 1584 | 12.1
298.15 K, x1 = 0.3587 | 1170.49 | 1586 | 12.2
298.15 K, x1 = 0.4311 | 1187.05 | 1588 | 11.9
298.15 K, x1 = 0.5579 | 1214.39 | 1590 | 10.3
298.15 K, x1 = 0.6955 | 1257.13 | 1591 | 8.34
298.15 K, x1 = 0.775 | 1295.34 | 1584 | 7.25
298.15 K, x1 = 0.843 | 1334.58 | 1581 | 6.05
298.15 K, x1 = 0.9375 | 1403.82 | 1573 | 5.39
298.15 K, x1 = 0.97 | 1439.41 | 1566 | 5.24
298.15 K, x1 = 1 | 1467.58 | 1564 | 5.1
303.15 K, x1 = 0.0183 | 1037.3 | 1552 | 2.02
303.15 K, x1 = 0.0369 | 1048.09 | 1553 | 2.9
303.15 K, x1 = 0.0964 | 1080.22 | 1556 | 5.22
303.15 K, x1 = 0.138 | 1098.35 | 1558 | 6.83
303.15 K, x1 = 0.2014 | 1122.72 | 1562 | 8.56
303.15 K, x1 = 0.3115 | 1154.59 | 1568 | 9.88
303.15 K, x1 = 0.3587 | 1161.24 | 1571 | 9.93
303.15 K, x1 = 0.4311 | 1177.45 | 1573 | 9.66
303.15 K, x1 = 0.5579 | 1204.95 | 1577 | 8.28
303.15 K, x1 = 0.6955 | 1247.15 | 1575 | 6.8
303.15 K, x1 = 0.775 | 1283.75 | 1572 | 6.01
303.15 K, x1 = 0.843 | 1321.99 | 1571 | 5.07
303.15 K, x1 = 0.9375 | 1389.78 | 1567 | 4.66
303.15 K, x1 = 0.97 | 1426.11 | 1563 | 4.59
303.15 K, x1 = 1 | 1463.56 | 1560 | 4.48
308.15 K, x1 = 0.0183 | 1029.88 | 1529 | 1.91
308.15 K, x1 = 0.0369 | 1041.19 | 1530 | 2.48
308.15 K, x1 = 0.0964 | 1073.31 | 1534 | 4.55
308.15 K, x1 = 0.138 | 1091.47 | 1536 | 5.68
308.15 K, x1 = 0.2014 | 1115.24 | 1539 | 7.18
308.15 K, x1 = 0.3115 | 1146.54 | 1545 | 8.38
308.15 K, x1 = 0.3587 | 1155.39 | 1549 | 8.48
308.15 K, x1 = 0.4311 | 1170.29 | 1553 | 8.26
308.15 K, x1 = 0.5579 | 1196.63 | 1560 | 7.19
308.15 K, x1 = 0.6955 | 1239.34 | 1561 | 5.89
308.15 K, x1 = 0.775 | 1273.99 | 1560 | 5.25
308.15 K, x1 = 0.843 | 1315.25 | 1559 | 4.4
308.15 K, x1 = 0.9375 | 1383.15 | 1558 | 4.28
308.15 K, x1 = 0.97 | 1417.02 | 1557 | 4.01
308.15 K, x1 = 1 | 1463.5 | 1556 | 3.94
313.15 K, x1 = 0.0183 | 1024.27 | 1521 | 1.45
313.15 K, x1 = 0.0369 | 1035.08 | 1523 | 1.76
313.15 K, x1 = 0.0964 | 1066.52 | 1526 | 3.52
313.15 K, x1 = 0.138 | 1083.97 | 1528 | 4.79
313.15 K, x1 = 0.2014 | 1107.81 | 1530 | 6.19
313.15 K, x1 = 0.3115 | 1135.87 | 1539 | 7.09
313.15 K, x1 = 0.3587 | 1145.43 | 1541 | 7.14
313.15 K, x1 = 0.4311 | 1157.43 | 1545 | 6.99
313.15 K, x1 = 0.5579 | 1185.37 | 1550 | 6.15
313.15 K, x1 = 0.6955 | 1225.55 | 1551 | 4.7
313.15 K, x1 = 0.775 | 1260.83 | 1550 | 3.99
313.15 K, x1 = 0.843 | 1295.67 | 1553 | 3.52
313.15 K, x1 = 0.9375 | 1369.46 | 1552 | 3.35
313.15 K, x1 = 0.97 | 1404.25 | 1552 | 3.23
313.15 K, x1 = 1 | 1455.63 | 1552 | 3.16
